In US20260226043A1, “POLYMORPHS OF THE MALEIC ACID SALT OF LINAPRAZAN GLURATE” (Cinclus Pharma Holding AB (publ), priority 2023, published 2026):
Entries after “also recorded” stand apart in the source; their conditions may differ. Where two headings read alike, the source gives them in different places. Marks after values point to notes of the source that are not given here.

What was measured:
clinical = conditions: human, in vivo
Procedure: Linaprazan glurate is a prodrug of linaprazan, which was disclosed in WO 99/55706 and previously studied in Phase I and II studies. […] A clinical Phase I study has shown that administration of a single dose of linaprazan glurate can maintain the intragastric acidity above pH 4 for 24 hours. Linaprazan glurate is therefore tailored for patients with severe erosive gastroesophageal reflux disease (eGERD).
It is estimated that this requires a minimal plasma concentration (Cmin) of linaprazan of at least about 240 nmol/L after 22 hours. At such doses, a once daily oral administration of the formulation would be sufficient. In some embodiments, therefore, a single unit dose of a pharmaceutical composition of linaprazan glurate provides a Cmin of linaprazan in a human of at least about 240 nmol/L after 22 hours following oral administration of the pharmaceutical composition to said human. In other embodiments, a daily administration of two unit doses of a pharmaceutical composition of linaprazan glurate provides a Cmin of linaprazan in a human of at least about 240 nmol/L after 10 hours following oral administration of the last unit dose of the pharmaceutical composition to said human.

gastric acid = conditions: Phase I and II studies; cited from earlier work
[1] = Phase I and II studies; cited from earlier work
intragastric acidity = conditions: cited from earlier work
[2] = cited from earlier work
[3] = free base Form A; cited from earlier work
[4] = cited from earlier work; remark: listed apart in the source
[5] = Slurry experiments (solid form stability, XRPD); format: physicochemical
Procedure: Slurry experiments were performed in various solvents. The samples were slurried for different periods of time depending on temperature. […] The water-containing slurries were performed to investigate possible hydrate formation.
Details of all slurry experiments performed, including solvent(s) used, total concentration and final form by XRPD, are given in Table 1.
Approximately 30 mg of linaprazan glurate maleic acid salt was used for each experiment, together with 20 different solvents (pure and binary solvents) at room temperature, at 4° C., at 40° C., and at 60° C., unless indicated otherwise. […] The solid phase was isolated and analysed with XRPD. The sample run at fridge temperature (ca 4° C.) was analysed after 26 and 53 days of slurry. The samples run at RT were analysed after 26 days of slurry. The samples run at 40° C. were analysed after 6 and 12 days of slurry. The samples run at 60° C. were analysed after 1 day of slurry.

[6] = Gravimetric/dynamic vapour sorption (GVS/DVS)
Procedure: Analyses were performed on an SMS DVS-1 instrument. A few mg of the substance was added into an Al pan and exposed to stepwise RH changes during two consecutive cycles according to 20-80-0-90-0%, in steps of 10% RH, using open loop mode. The experiments were performed using a gas flow rate of 200 mL/min and at 25° C. The dm/dt criteria applied was 0.001 weight-%/min during a 5-minute window, with a maximum allowed time of 360 minutes and a minimum allowed time of 10 minutes for all steps.
The hygroscopicity of Form 1 (obtained from the synthesis described below in example 1) was investigated using GVS at 25° C.

[7] = Thermogravimetric analysis (TGA)
Procedure: Analyses were performed on a PerkinElmer TGA7 instrument. A few mg of sample was gently charged into open Pt-pans and analysed by weight in a flow of dry nitrogen gas (20 mL/min), to ensure an inert atmosphere. The sample was scanned from 25 to 200° C. using a continuous scan speed of 10° C./min. The weight loss was calculated from 25° C. up to 145° C.

In the case of `Cc1cccc(C)c1CNc1cc(C(=O)NCCO)cn2c(C)c(C)nc12` [linaprazan], the concentration at 22 h (clinical) is given as ≥ 240 nM, the “duration of acid inhibition” value (gastric acid) is given as “too short duration of acid inhibition” and the “onset of action / effect” value (gastric acid) is given as “fast onset of action and full effect at first dose”. For the same compound, the “elimination from the body” value [1] was “quickly eliminated from the body” and the tolerability [1] was “well tolerated”.
In the case of `Cc1cccc(C)c1CNc1cc(C(=O)NCCOC(=O)CCCC(=O)O)cn2c(C)c(C)nc12` [linaprazan glurate, 5-{2-[({8-[(2,6-dimethylbenzyl)amino]-2,3-dimethylimidazo[1,2-a]pyridine-6-yl}carbonyl)-amino]ethoxy}-5-oxopentanoic acid], the “control of the gastric acid production” value (intragastric acidity; compared to linaprazan) is listed as “total control of the gastric acid production for a longer time”, the “intragastric acidity (pH) maintained” value (intragastric acidity; single dose, maintained for 24 hours, clinical Phase I study) is listed as > 4 and the “plasma concentration of linaprazan glurate” value ([2]; after administration of linaprazan glurate) is listed as “only very low and difficult to determine”. The “half-life in the body” value ([2]; compared to linaprazan) was “longer half-life in the body” and the metabolism ([2]; following absorption into the blood stream) was “quickly metabolized into linaprazan”.
For `Cc1cccc(C)c1CNc1cc(C(=O)NCCOC(=O)CCCC(=O)O)cn2c(C)c(C)nc12` [Form A], the hygroscopicity [3] is given as “very low hygroscopicity”, the “physical and chemical stability” value [3] is given as “good physical and chemical stability” and the solubility in water ([4]; pH 1) is given as “only slightly soluble”. The solubility in water ([4]; pH 6.8) was “practically insoluble”.
With `Cc1cccc(C)c1CNc1cc(C(=O)NCCOC(=O)CCCC(=O)O)cn2c(C)c(C)nc12.O=C(O)/C=C\C(=O)O` [Form 1, maleic acid salt of 5-{2-[({8-[(2,6-dimethylbenzyl)amino]-2,3-dimethylimidazo[1,2-a]pyridine-6-yl}carbonyl)-amino]ethoxy}-5-oxopentanoic acid] the Solid state form ([5]; slurry in 1,4-dioxane, 63 mg/mL, 40° C., 6 and 12 days) was “Form 1”, the Solid state form ([5]; slurry in 1,4-dioxane:DMA 9:1, 103 mg/mL, RT, 26 days) was “Form 1” and the Solid state form ([5]; slurry in 2-propanol, 56 mg/mL, 40° C., 6 and 12 days) was “Form 1 + Crystalline”. For the same compound, the Solid state form ([5]; slurry in 2-propanol:DMA 9:1, 91 mg/mL, RT, 26 days) was “Form 1”, the Solid state form ([5]; slurry in DMA, 890 mg/mL, RT, 26 days) was “Crystalline base form” and the Solid state form ([5]; slurry in DMA, 1369 mg/mL, 40° C., 6 and 12 days) was “Form 1 + Crystalline”. The Solid state form ([5]; slurry in EtOAc, 36 mg/mL, 40° C., 6 and 12 days) was “Form 1”, the Solid state form ([5]; slurry in EtOAc:DMA 9:1, 89 mg/mL, RT, 26 days) was “Form 1 + Crystalline” and the Solid state form ([5]; slurry in EtOH, 61 mg/mL, 40° C., 6 and 12 days) was “Form 1 + Crystalline”. The Solid state form ([5]; slurry in EtOH, 61 mg/mL, RT, 26 days) was “Form 1”, the Solid state form ([5]; slurry in MIBK, 53 mg/mL, 40° C., 6 and 12 days) was “Form 1” and the Solid state form ([5]; slurry in MIBK, 62 mg/mL, 60° C., 1 day) was “Form 1”. The Solid state form ([5]; slurry in MIBK:DMA 9:1, 84 mg/mL, RT, 26 days) was “Form 1”, the Solid state form ([5]; slurry in MTBE, 68 mg/mL, 40° C., 6 and 12 days) was “Form 1 + MTBE solvate” and the Solid state form ([5]; slurry in MTBE:DMA 9:1, 99 mg/mL, RT, 26 days, analysed also after 53 days) was “Form 1 + MTBE solvate*”. For the same compound, the Solid state form ([5]; slurry in MeCN, 52 mg/mL, 40° C., 6 and 12 days) was “Form 1”, the Solid state form ([5]; slurry in MeCN, 63 mg/mL, 60° C., 1 day) was “Form 1” and the Solid state form ([5]; slurry in MeCN:DMA 9:1, 85 mg/mL, RT, 26 days) was “Form 1 + Crystalline”. For the same compound, the Solid state form ([5]; slurry in MeOH, 51 mg/mL, 40° C., 6 and 12 days) was “Crystalline base form”, the Solid state form ([5]; slurry in MeOH, 55 mg/mL, RT, 26 days) was “Form 1 + Crystalline” and the Solid state form ([5]; slurry in MeOH:water 4:1, 52 mg/mL, ca 4° C., 26 and 53 days) was “Form 1 + Crystalline”. The Solid state form ([5]; slurry in MeOH:water 4:1, 58 mg/mL, RT, 26 days) was “Crystalline base form”, the Solid state form ([5]; slurry in THF, 53 mg/mL, 40° C., 6 and 12 days) was “Form 1 + Crystalline” and the Solid state form ([5]; slurry in THF, 63 mg/mL, 60° C., 1 day) was “Form 1”. The Solid state form ([5]; slurry in THF:DMA 9:1, 93 mg/mL, RT, 26 days) was “Form 1 + Crystalline”, the Solid state form ([5]; slurry in acetone, 29 mg/mL, RT, analysed after 21 days) was “Form 1**” and the Solid state form ([5]; slurry in benzyl alcohol, 332 mg/mL, RT, analysed after 21 days) was “Form 1**”. For the same compound, the hygroscopicity classification ([6]; GVS/DVS at 25° C.) was “slightly hygroscopic; also recorded: low hygroscopicity”, the water uptake ([6]; at 80% RH, dynamic vapour sorption) was “about 0.45%” and the uptake of water ([6]; humidity range 0 to 80% RH, GVS at 25° C.) was ~0.4%. For the same compound, the “weight loss (TGA)” value [7] was 0.17%.
